In patent publication US10093623B2, “Cyclic amides as MetAP-2 inhibitors” (MERCK PATENT GmbH, priority 2012, dated 2018) one finds IC50 data, which are given here for 15 compounds.

For the assay, the target named is MetAP-2 (Homo sapiens, UniProt P50579). Put plainly: MetAP-2 activity measurement (coupled enzymatic reactions, Met-Arg-Ser substrate, dianisidine detection at 450 nm). It counts as biochemical. The following applies: Inhibition of MetAP-2; read-out: IC50 enzyme. The method, boiled down:
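Rate read from the linear part of the 450 nm absorbance trace. Dianisidine oxidation by peroxidase reports H2O2 made when amino acid oxidase acts on methionine cleaved from MAS tripeptide, one mol dye per mol Met; extinction coefficient gives molar activity.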

MetAP-2, sequence (P50579 whole entry, species assumed): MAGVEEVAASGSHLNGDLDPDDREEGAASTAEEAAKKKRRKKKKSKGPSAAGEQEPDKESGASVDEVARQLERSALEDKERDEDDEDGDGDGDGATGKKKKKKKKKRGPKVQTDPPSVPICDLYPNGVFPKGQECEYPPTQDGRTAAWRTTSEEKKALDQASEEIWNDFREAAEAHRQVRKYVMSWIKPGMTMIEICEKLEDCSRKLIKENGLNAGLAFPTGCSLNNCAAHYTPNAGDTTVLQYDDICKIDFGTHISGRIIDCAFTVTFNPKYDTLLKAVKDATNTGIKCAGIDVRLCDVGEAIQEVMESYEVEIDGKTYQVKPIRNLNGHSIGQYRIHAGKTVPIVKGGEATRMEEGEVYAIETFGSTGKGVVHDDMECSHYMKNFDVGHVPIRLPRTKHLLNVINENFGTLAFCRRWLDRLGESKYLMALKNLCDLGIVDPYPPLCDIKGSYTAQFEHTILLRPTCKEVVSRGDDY

As usually defined, the IC50 is the concentration needed to halve the response being measured. In the case of `O=C(NCc1cc(F)cc(Cl)c1)[C@]1(O)CCN(CCc2ccccc2)C1=O` [A92, N-(3-Chloro-5-fluorobenzyl)-(R)-3-hydroxy-2-oxo-1-phenethyl-pyrrolidine-3-carboxamide], the IC50 was 1 to 10 µM.
As to `NS(=O)(=O)c1ccc(N2CCC(O)(C(=O)NCc3cc(F)cc(Cl)c3)C2=O)cc1` (stereo not drawn) [B115, N-(3-Chloro-5-fluorobenzyl)-3-hydroxy-2-oxo-1-(4-sulfamoyl-phenyl)pyrrolidine-3-carboxamide], the IC50 is 0.01 to 1 µM.
Then `CCOC(=O)[C@H]1CC[C@H](N2CCC(O)(C(=O)NCc3cc(F)cc(Cl)c3)C2=O)CC1` (stereo partly drawn) [A148, Ethyl 4-[3-(3-chloro-5-fluorobenzylcarbamoyl)-3-hydroxy-2-oxopyrrolidin-1-yl]-cyclohexanecarboxylate], with 1 to 10 µM.
Then `O=C1CCc2cc(N3CCC(O)(C(=O)NCc4cccc(F)c4Cl)C3=O)ccc2N1` (stereo not drawn) [A196, N-(2-Chloro-3-fluorobenzyl)-3-hydroxy-2-oxo-1-(2-oxo-1,2,3,4-tetrahydroquinolin-6-yl)-pyrrolidine-3-carboxamide], with 0.01 to 1 µM.
Then `O=C1CCc2cc(N3CCC(O)(C(=O)NCCc4cccc(F)c4)C3=O)ccc2N1` (stereo not drawn) [A183, N-[2-(3-Fluorophenyl)ethyl]-3-hydroxy-2-oxo-1-(2-oxo-1,2,3,4-tetrahydroquinolin-6-yl)-pyrrolidine-3-carboxamide], with 0.01 to 1 µM.
`O=C(NCc1cc(F)cc(Cl)c1)[C@@]1(O)CCN(c2cc(C(F)(F)F)ccc2F)C1=O` [B39, N-(3-Chloro-5-fluorobenzyl)-(S)-1-(2-Fluoro-5-trifluoromethyl-phenyl)-3-hydroxy-2-oxo-pyrrolidine-3-carboxamide]: the half-maximal inhibitory concentration (IC50) lay in the range of 0.01 to 1 µM.
On to `CN(C)CCN(C)C(=O)[C@@]1(O)CCN(c2ccccc2)C1=O` [A61], for which the IC50 is > 10 µM.
The same measure for `CN(CCO)C(=O)c1cccc(N2CC[C@](O)(C(=O)NCc3cc(F)cc(Cl)c3)C2=O)c1` [A93, N-(3-Chloro-5-fluorobenzyl)-(S)-3-hydroxy-1-{3-[(2-hydroxy-ethyl)methylcarbamoyl]phenyl}-2-oxopyrrolidine-3-carboxamide]: 1 to 10 µM; for `O=C(c1cccc(N2CC[C@](O)(C(=O)NCc3cc(F)cc(Cl)c3)C2=O)c1)N1CCOCC1` [A72, N-(3-Chloro-5-fluorobenzyl)-(S)-3-hydroxy-1-[3-(morpholine-4-carbonyl)phenyl]-2-oxopyrrolidine-3-carboxamide]: 0.01 to 1 µM; for `O=C(N1CCN(CCO)CC1)[C@@]1(O)CCN(c2ccccc2)C1=O` [A57, (S)-3-Hydroxy-3-[4-(2-hydroxy-ethyl)piperazine-1-carbonyl]-1-phenylpyrrolidin-2-one]: > 10 µM.
The same measure for `O=C1N(CC2CCCCC2)CCCC1(O)CNCc1cc(F)cc(Cl)c1` (stereo not drawn) [B18, 3-[(3-Chloro-5-fluorobenzylamino)methyl]-1-cyclohexylmethyl-3-hydroxy-piperidin-2-one]: 0.01 to 1 µM; for `CCC(=O)Nc1ccc(N2CC[C@](O)(C(=O)NCc3cc(F)cc(Cl)c3)C2=O)cn1` [A171, N-(3-Chloro-5-fluorobenzyl)-(S)-3-hydroxy-2-oxo-1-(6-propionylaminopyridin-3-yl)-pyrrolidine-3-carboxamide]: 0.01 to 1 µM; for `O=C1N(c2ccccc2)CCC1(O)CNCc1cc(F)cc(Cl)c1` (stereo not drawn) [B29, 3-[(3-Chloro-5-fluorobenzylamino)methyl]-3-hydroxy-1-phenylpyrrolidin-2-one]: 0.01 to 1 µM.
The same measure for `CN(C)C(=O)c1cc2cc(N3CC[C@](O)(C(=O)NCc4cc(F)cc(Cl)c4)C3=O)ccc2[nH]1` [B95, N,N-Dimethyl-5-[(S)-3-(3-chloro-5-fluorobenzylcarbamoyl)-3-hydroxy-2-oxopyrrolidin-1-yl]-1H-indole-2-carboxamide]: 0.01 to 1 µM.
Consider `CCN1C[C@@H]2[C@H](C1)[C@H]2N1CCC(O)(C(=O)NCc2cc(F)cc(Cl)c2)C1=O` (stereo partly drawn) [A275, N-(3-Chloro-5-fluorobenzyl)-1-((1S,5R,6S)-3-ethyl-3-aza-bicyclo[3.1.0]hex-6-yl)-3-hydroxy-2-oxopyrrolidine-3-carboxamide], for which the IC50 was > 10 µM.
